According to patent US9932350B2, “Inhibitors of IRAK4 activity” (MERCK SHARP & DOHME CORP., priority 2014, dated 2018):

These compounds were tested against GST tagged IRAK4 (Homo sapiens (Human), UniProt Q9NWZ3) (assay: IRAK4 Kinase Assay (IMAP fluorescence polarization)). Settings: 0.5 nM GST tagged IRAK4, 100 μM ATP, 30 minutes at 25° C.
Type: biochemical
Procedure: The kinase activity of IRAK4 is determined by its ability to catalyze the phosphorylation of a fluorescent polypeptide substrate. The extent of phosphorylation is measured using the IMAP technology (Molecular Devices) where the phosphorylated fluorescent substrate binds to the large M(III)-based nanoparticles which reduces the rotational speed of the substrate and thus increases its fluorescent polarization (FP).
20 μL reaction mixture contains 10 mM TriHCl, pH 7.2, 0.5 nM GST tagged IRAK4 (SignalChem), 100 nM fluorescent peptide substrate (RP7030, Molecular Devices), 100 μM ATP, 1 mM DDT, 1 mM MgCl2, and 0.01% Tween 20. The reaction is initiated by the addition of ATP. After incubation for 30 minutes at 25° C., 60 μL of Progressive IMAP Reagent (Molecular Devices) is added to stop the reaction. Change in RP7030's FP is determined by a FP reader (Analyst HT, LJL BioSystems).

GST tagged IRAK4, sequence (Q9NWZ3 whole entry): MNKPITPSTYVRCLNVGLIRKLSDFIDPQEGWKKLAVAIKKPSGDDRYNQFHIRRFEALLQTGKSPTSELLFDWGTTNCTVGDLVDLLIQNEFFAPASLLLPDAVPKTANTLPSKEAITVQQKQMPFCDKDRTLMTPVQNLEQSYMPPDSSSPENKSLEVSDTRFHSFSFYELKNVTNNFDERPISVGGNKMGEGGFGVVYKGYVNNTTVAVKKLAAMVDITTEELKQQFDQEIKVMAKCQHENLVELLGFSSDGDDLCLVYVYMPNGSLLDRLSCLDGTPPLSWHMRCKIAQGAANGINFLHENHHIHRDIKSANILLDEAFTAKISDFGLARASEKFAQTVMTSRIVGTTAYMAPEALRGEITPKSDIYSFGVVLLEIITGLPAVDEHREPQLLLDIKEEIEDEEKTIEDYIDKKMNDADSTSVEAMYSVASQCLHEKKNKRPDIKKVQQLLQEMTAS

Row | Compound | IC50
1 | N#Cc1ccc2ncnc(N[C@H]3CC[C@H](N4CCCC(C(F)(F)F)C4)CC3)c2c1 (single isomer, unassigned) [Example 3-2, 4-({cis or trans-4-[(3R or S)-3-(trifluoromethyl)piperidin-1-yl]cyclohexyl}amino) quinazoline-6-carbonitrile] | 0.033 µM
2 | N#Cc1ccc2ncnc(NC3CCC(N4CCCC(C(F)(F)F)C4)CC3)c2c1 (single isomer, unassigned) [Example 3-3, 4-({cis or trans-4-[(3R or S)-3-(trifluoromethyl)piperidin-1-yl]cyclohexyl}amino) quinazoline-6-carbonitrile] | 0.007 µM
3 | N#Cc1ccc2ncnc(NC3CCC(N4CCCC(C(F)(F)F)C4)CC3)c2c1 (single isomer, unassigned) [Example 3-4, 4-({cis or trans-4-[(3R or S)-3-(trifluoromethyl)piperidin-1-yl]cyclohexyl}amino) quinazoline-6-carbonitrile] | 0.503 µM
4 | N#Cc1ccc2ncnc(NC3CCC(N4CCCC(C(F)(F)F)C4)CC3)c2c1 (single isomer, unassigned) [Example 3-5, 4-({cis or trans-4-[(3R or S)-3-(trifluoromethyl)piperidin-1-yl]cyclohexyl}amino) quinazoline-6-carbonitrile] | 0.908 µM
5 | N#Cc1ccc2ncnc(N[C@H]3CC[C@H](N4CCOC(CO)C4)CC3)c2c1 (single isomer, unassigned) [Example 3-11, 4-({trans-4-[(2R or 2S)-2-(hydroxymethyl)morpholin-4-yl]cyclohexyl}amino) quinazoline-6-carbonitrile] | 0.007 µM
6 | N#Cc1ccc2ncnc(N[C@H]3CC[C@H](N4CCOC(CO)C4)CC3)c2c1 (single isomer, unassigned) [Example 3-12, 4-({trans-4-[(2R or 2S)-2-(hydroxymethyl)morpholin-4-yl]cyclohexyl}amino) quinazoline-6-carbonitrile] | 0.006 µM
7 | CC1CN([C@H]2CC[C@H](Nc3ncnc4ccc(C#N)cc34)CC2)CC(C)O1 (single isomer, unassigned) [Example 3-14, 4-({trans-4-[(2S,6S or 2R,6R)-2,6-dimethylmorpholin-4-yl]cyclohexyl}amino) quinazoline-6-carbonitrile] | 0.033 µM
8 | CC1CN([C@H]2CC[C@H](Nc3ncnc4ccc(C#N)cc34)CC2)CC(C)O1 (single isomer, unassigned) [Example 3-15, 4-({trans-4-[2S,6S or 2R,6R)-2,6-dimethylmorpholin-4-yl]cyclohexyl}amino) quinazoline-6-carbonitrile] | 0.058 µM
9 | CC1CN([C@H]2CC[C@H](Nc3ncnc4ccc(C#N)cc34)CC2)CCO1 (single isomer, unassigned) [Example 3-16, 4-({trans-4-[(2S or 2R)-2-methylmorpholin-4-yl]cyclohexyl}amino) quinazoline-6-carbonitrile] | 0.007 µM
10 | CC1CN([C@H]2CC[C@H](Nc3ncnc4ccc(C#N)cc34)CC2)CCO1 (single isomer, unassigned) [Example 3-17, 4-({trans-4-[(2S or 2R)-2-methylmorpholin-4-yl]cyclohexyl}amino) quinazoline-6-carbonitrile] | 0.004 µM
11 | N#Cc1ccc2ncnc(N[C@H]3CC[C@H](N4CCCC(CN5CCOCC5)C4)CC3)c2c1 (single isomer, unassigned) [Example 3-41, 4-({trans-4-[(3R or 3S)-3-(morpholin-4-ylmethyl)piperidin-1-yl]cyclohexyl}amino) quinazoline-6-carbonitrile] | 0.07 µM
12 | N#Cc1ccc2ncnc(N[C@H]3CC[C@H](N4CCCC(CN5CCOCC5)C4)CC3)c2c1 (single isomer, unassigned) [Example 3-42, 4-({trans-4-[(3R or 3S)-3-(morpholin-4-ylmethyl)piperidin-1-yl]cyclohexyl}amino) quinazoline-6-carbonitrile] | 0.005 µM
13 | N#Cc1ccc2ncnc(N[C@H]3CC[C@H](N4CCOC(C(F)(F)F)C4)CC3)c2c1 (single isomer, unassigned) [Example 3-48, 4-({trans-4-[(2R or 2S)-2-(trifluoromethyl)morpholin-4-yl]cyclohexyl}amino) quinazoline-6-carbonitrile] | 0.256 µM
14 | N#Cc1ccc2ncnc(N[C@H]3CC[C@H](N4CCOC(C(F)(F)F)C4)CC3)c2c1 (single isomer, unassigned) [Example 3-49, 4-({trans-4-[(2R or 2S)-2-(trifluoromethyl)morpholin-4-yl]cyclohexyl}amino) quinazoline-6-carbonitrile] | 0.131 µM
15 | CC1CC(N2CCOCC2)CCC1Nc1ncnc2ccc(C#N)cc12 (single isomer, unassigned) [Example 8-1, 4-{[(1R,2R,4R or 1S,2S,4S)-2-methyl-4-(morpholin-4-yl)cyclohexyl]amino}quinazoline-6-carbonitrile] | 0.014 µM
16 | CC1CC(N2CCC(F)CC2)CCC1Nc1ncnc2ccc(C#N)cc12 (single isomer, unassigned) [Example 8-2, 4-{[(1S,2S,4S or 1R,2R,4R)-4-(4-fluoropiperidin-1-yl)-2-methylcyclohexyl]amino} quinazoline-6-carbonitrile] | 0.01 µM
17 | CC1CC(N2CCOCC2)CCC1Nc1ncnc2ccc(C#N)cc12 (single isomer, unassigned) [Example 8-3, 4-{[(1S,2R,4S or 1R,2S,4R)-2-methyl-4-(morpholin-4-yl)cyclohexyl]amino} quinazoline-6-carbonitrile] | 0.026 µM
18 | N#Cc1ccc2ncnc(N[C@H]3CC[C@H](N)CC3)c2c1 [Example 1-1, 4-[(Trans-4-aminocyclohexyl)amino]quinazoline-6-carbonitrile] | 0.031 µM
19 | N[C@H]1CC[C@H](Nc2ncnc3ccc(Br)cc23)CC1 [Example 1-2, trans-N-(6-bromoquinazolin-4-yl)cyclohexane-1,4-diamine] | 0.027 µM
20 | Brc1ccc2ncnc(O[C@H]3CC[C@H](N4CCOCC4)CC3)c2c1 [Example 2-1, 6-Bromo-4-{[trans-4-(morpholin-4-yl)cyclohexyl]oxy}quinazoline] | 0.04 µM
21 | Brc1ccc2ncnc(N[C@H]3CC[C@H](N4CCOCC4)CC3)c2c1 [Example 2-2, 6-Bromo-N-[trans-4-(morpholin-4-yl)cyclohexyl]quinazolin-4-amine] | 0.005 µM
22 | COc1cc2ncnc(N[C@H]3CC[C@H](N(C)C)CC3)c2cc1OC [Example 2-3, trans-N′-(6,7-dimethoxyquinazolin-4-yl)-N,N-dimethylcyclohexane-1,4-diamine] | 7.42 µM
23 | CN(C)[C@H]1CC[C@H](Nc2ncnc3cc(F)c(F)cc23)CC1 [Example 2-4, trans-N′-(6,7-difluoroquinazolin-4-yl)-N,N-dimethylcyclohexane-1,4-diamine] | 0.303 µM
24 | CN(C)[C@H]1CC[C@H](Nc2ncnc3ccc(C#N)cc23)CC1 [Example 2-5, 4-{[trans-4-(dimethylamino)cyclohexyl]amino}quinazoline-6-carbonitrile] | 0.007 µM
25 | CN(C)[C@H]1CC[C@H](Nc2ncnc3ccc(Br)cc23)CC1 [Example 2-6, trans-N′-(6-bromoquinazolin-4-yl)-N,N-dimethylcyclohexane-1,4-diamine] | 0.009 µM
26 | N#Cc1ccc2ncnc(N[C@H]3CC[C@H](N4CCOCC4)CC3)c2c1 [Example 2-7, 4-{[trans-4-(morpholin-4-yl)cyclohexyl]amino} quinazoline-6-carbonitrile] | 0.006 µM
